We go through six compounds from patent publication US9315486B2, “Therapeutic cyclopentanols, compositions thereof, and methods for use thereof” (Allergan, Inc., priority 2013, dated 2016).

The term EC50 denotes the concentration needed to bring the measured effect to its halfway point. The low end stands for an effect from little substance, the high end for a need for much substance.

Structures are written as SMILES.

For one test, the target named is T1, DP (Homo sapiens, UniProt Q13258).
T1 sequence (Q13258 1-359): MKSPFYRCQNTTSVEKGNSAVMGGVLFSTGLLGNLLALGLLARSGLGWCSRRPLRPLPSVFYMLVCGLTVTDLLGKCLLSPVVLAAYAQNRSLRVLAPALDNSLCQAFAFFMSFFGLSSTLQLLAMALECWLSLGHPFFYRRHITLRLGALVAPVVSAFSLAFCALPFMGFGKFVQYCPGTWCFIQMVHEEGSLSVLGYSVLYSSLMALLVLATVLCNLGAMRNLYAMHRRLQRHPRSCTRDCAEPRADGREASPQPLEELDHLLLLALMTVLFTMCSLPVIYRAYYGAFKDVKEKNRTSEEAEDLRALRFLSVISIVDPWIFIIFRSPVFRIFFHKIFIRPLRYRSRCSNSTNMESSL
Description: DP activity study. It counts as cell-based. Here is the method:
(§1) Data from running binding and activity studies on the compounds of the invention were carried out as described in U.S. Pat. No. 7,427,685, the contents of which are incorporated herein by reference.

The next test addresses T2, TP (Homo sapiens, UniProt P21731).
T2 sequence (P21731 1-343): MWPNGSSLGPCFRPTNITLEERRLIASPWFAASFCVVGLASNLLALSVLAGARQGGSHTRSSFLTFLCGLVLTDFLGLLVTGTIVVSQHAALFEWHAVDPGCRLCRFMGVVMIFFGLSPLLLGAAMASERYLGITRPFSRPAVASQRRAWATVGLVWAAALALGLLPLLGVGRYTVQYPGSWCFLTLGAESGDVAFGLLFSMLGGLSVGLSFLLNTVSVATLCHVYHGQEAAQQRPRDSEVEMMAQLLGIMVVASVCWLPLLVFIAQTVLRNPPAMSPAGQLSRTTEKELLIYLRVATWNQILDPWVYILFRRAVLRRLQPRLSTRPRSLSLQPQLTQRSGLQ
Nature of the test: TP activity study. It counts as cell-based. The procedure:
as §1

The target in test [1] is T3, EP2 (Homo sapiens, UniProt P43116). Nature of the test: EP2 Ca2+ signal activity study. It is filed as cell-based. The procedure:
as §1

Test [2] concerns the target T4, EP4 (Homo sapiens, UniProt P35408). Description: EP4 binding study. The procedure:
as §1

The target of the next test is T5, EP3 (Homo sapiens, UniProt P43115).
T5 sequence (P43115 1-390): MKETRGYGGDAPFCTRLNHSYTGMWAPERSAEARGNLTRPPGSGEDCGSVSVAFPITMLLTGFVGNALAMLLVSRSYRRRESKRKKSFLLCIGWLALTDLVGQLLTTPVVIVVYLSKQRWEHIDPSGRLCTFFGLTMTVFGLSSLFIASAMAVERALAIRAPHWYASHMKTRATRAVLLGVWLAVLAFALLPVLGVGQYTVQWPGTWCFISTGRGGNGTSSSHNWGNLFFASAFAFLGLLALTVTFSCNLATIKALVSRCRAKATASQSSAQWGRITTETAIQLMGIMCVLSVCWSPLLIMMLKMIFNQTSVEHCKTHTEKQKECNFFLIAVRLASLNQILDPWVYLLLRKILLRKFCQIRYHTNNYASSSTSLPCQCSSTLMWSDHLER
Description: EP3 activity study. It counts as cell-based. Here is the method:
as §1

The target in test [3] is T3, EP2. Description: EP2 cAMP activity study. It counts as cell-based. The procedure:
as §1

Another test deals with T6, EP1 (Homo sapiens, UniProt P34995).
T6 sequence (P34995 1-402): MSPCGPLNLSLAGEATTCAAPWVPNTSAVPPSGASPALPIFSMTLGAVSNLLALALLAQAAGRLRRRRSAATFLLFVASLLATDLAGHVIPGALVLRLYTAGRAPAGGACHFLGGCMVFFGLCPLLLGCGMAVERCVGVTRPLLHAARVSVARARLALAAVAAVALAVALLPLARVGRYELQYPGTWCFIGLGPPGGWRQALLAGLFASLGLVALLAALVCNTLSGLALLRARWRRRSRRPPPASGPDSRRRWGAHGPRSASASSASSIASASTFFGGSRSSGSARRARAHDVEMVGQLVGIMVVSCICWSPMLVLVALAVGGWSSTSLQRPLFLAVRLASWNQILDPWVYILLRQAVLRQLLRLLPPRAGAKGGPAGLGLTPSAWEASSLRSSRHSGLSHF
Description: EP1 activity study. It is filed as cell-based. The procedure: as §1

Test [4] addresses T4, EP4. Nature of the test: EP4 Ca2+ signal activity study. It is filed as cell-based. The procedure: as §1
Test [5] deals with T3, EP2. Nature of the test: EP2 binding study. The procedure:
as §1

T4 sequence (P35408 whole entry): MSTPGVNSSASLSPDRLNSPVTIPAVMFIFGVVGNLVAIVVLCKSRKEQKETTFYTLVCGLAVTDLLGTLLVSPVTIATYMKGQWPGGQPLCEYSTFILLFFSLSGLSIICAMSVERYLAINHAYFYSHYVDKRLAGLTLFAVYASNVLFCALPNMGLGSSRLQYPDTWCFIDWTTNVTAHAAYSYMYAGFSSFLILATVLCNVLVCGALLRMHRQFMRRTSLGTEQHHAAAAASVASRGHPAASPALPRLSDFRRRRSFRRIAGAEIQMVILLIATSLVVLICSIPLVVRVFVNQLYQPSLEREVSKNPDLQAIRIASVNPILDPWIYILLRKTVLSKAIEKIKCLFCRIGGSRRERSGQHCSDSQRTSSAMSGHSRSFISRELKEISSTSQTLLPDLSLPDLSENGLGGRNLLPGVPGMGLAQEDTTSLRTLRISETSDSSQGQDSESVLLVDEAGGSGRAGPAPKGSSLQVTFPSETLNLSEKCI
T3 sequence (P43116 whole entry): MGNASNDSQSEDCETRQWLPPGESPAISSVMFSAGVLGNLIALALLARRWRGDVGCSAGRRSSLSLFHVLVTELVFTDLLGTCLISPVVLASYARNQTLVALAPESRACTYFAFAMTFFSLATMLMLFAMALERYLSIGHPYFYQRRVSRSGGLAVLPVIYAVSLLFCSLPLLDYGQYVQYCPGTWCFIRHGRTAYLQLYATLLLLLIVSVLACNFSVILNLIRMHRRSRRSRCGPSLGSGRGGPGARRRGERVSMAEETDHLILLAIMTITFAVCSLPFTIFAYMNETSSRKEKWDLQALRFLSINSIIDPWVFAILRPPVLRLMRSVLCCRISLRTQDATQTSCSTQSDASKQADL

`C[C@@H](O)CCC[C@H](O)/C=C/[C@@H]1[C@@H](CCCc2ccc(C(=O)O)s2)[C@H](Cl)C[C@H]1O` yielded an EC50 on DP of 6.79 µM.

On to `CCCC(O)CC(O)/C=C/[C@@H]1[C@@H](CCCc2ccc(C(=O)O)s2)[C@H](Cl)C[C@H]1O` (stereo partly shown), for which the EC50 is 4.8 µM on TP; 0.027 µM at EP2 [1]; 0.434 µM at EP4 [2]; 0.69 µM on EP3; 0.003 µM at EP2 [3]; 1.24 µM at EP1. The results for the EC50 on EP4 [4], on EP2 [5] and at DP were 0.023 µM, 0.716 µM and 2.26 µM, respectively.

With `CCCCC(O)[C@H](O)/C=C/[C@@H]1[C@@H](CCCc2ccc(C(=O)O)s2)[C@H](Cl)C[C@H]1O` (stereo partly shown), the EC50 on EP2 [1] was determined as 0.009 µM; on EP4 [2], 0.49 µM; at EP2 [3] it was 0.0023 µM; on EP4 [4], 0.045 µM; on EP2 [5], 0.148 µM; on DP, 0.886 µM.

`O=C(O)c1ccc(CCC[C@@H]2[C@@H](/C=C/[C@@H](O)CCCCCO)[C@H](O)C[C@H]2Cl)s1`: the EC50 on TP amounted to 7.57 µM; on EP2 [1], 0.004 µM; at EP4 [2], 1.13 µM; on EP3 it was 0.129 µM; on EP2 [3] it was 0.0004 µM; on EP1, 0.101 µM. Also, the figures for the EC50 on EP4 [4], at EP2 [5] and at DP were 0.068 µM, 0.147 µM and 3.35 µM, respectively.

As to `C[C@@H](O)CCCC[C@H](O)/C=C/[C@@H]1[C@@H](CCCc2ccc(C(=O)O)s2)[C@H](Cl)C[C@H]1O` [5-(3-((1R,2R,3R,5R)-5-Chloro-2-((3S 8R,E)-3,8-dihydroxynon-1-en-1-yl)-3-hydroxycyclopentyl)propyl)thiophene-2-carboxylic acid], the EC50 at EP2 [1] is 0.029 µM; at EP4 [2] it was > 10 µM; on EP3, 0.222 µM; at EP2 [3] it was 0.0014 µM; on EP1, 0.207 µM; at EP4 [4], 0.455 µM. Further, the values for the EC50 at EP2 [5] and at DP were 0.363 µM and 4.52 µM, respectively.

With `C[C@@H](O)CCCC[C@@H](O)/C=C/[C@@H]1[C@@H](CCCc2ccc(C(=O)O)s2)[C@H](Cl)C[C@H]1O` [5-(3-((1R,2R,3R,5R)-5-chloro-2-((3R,8R,E)-3,8-dihydroxynon-1-en-1-yl)-3-hydroxycyclopentyl)propyl)thiophene-2-carboxylic acid], the EC50 was 0.328 µM at EP2 [1]; 3.41 µM on EP4 [2]; 7.14 µM on EP3; 0.014 µM at EP2 [3]; 4.22 µM on EP1; > 10 µM on EP4 [4]. The compound further yielded an EC50 at EP2 [5] of 0.365 µM.
